Experimental findings from publication PMC7026418, “The kinase polypharmacology landscape of clinical PARP inhibitors” (Scientific Reports, 2020) are described below.

Common to all, as to experiment: biochemical
Design in all cases: DiscoveRx KINOMEscan active site-directed competition binding; percent of control kinase bound to immobilised ligand

Experiment [1] deals with VRK2 (Homo sapiens, UniProt Q86Y07).
Experiment [2] has as its target T1, p38-delta (Homo sapiens, UniProt O15264).
T1 construct: gene MAPK13
T1 sequence (O15264 1-365): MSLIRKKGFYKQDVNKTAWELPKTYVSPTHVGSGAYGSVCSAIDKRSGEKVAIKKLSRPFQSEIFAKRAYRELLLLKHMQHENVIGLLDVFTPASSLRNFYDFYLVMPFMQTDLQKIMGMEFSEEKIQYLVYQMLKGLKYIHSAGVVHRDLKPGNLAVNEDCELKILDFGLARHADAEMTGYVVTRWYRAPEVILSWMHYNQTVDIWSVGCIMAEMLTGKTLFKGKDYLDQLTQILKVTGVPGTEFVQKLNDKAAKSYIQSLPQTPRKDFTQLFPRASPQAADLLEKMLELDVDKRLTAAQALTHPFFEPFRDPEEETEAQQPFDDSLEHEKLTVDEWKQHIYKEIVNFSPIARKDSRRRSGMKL

For experiment [3], the target named is CDK4 (Homo sapiens, UniProt P11802).
Chain of CDK4 (P11802 whole entry): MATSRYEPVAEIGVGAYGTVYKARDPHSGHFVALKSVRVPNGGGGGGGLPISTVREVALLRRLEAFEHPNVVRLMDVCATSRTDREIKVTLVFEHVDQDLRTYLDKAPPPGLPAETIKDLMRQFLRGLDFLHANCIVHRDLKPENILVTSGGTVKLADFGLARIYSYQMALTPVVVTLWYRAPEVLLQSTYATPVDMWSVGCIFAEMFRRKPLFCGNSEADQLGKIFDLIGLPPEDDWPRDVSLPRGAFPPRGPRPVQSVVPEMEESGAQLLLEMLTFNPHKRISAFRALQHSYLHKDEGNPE
Experiment [4] deals with T2, SGK3 (Homo sapiens, UniProt Q96BR1).
T2 sequence (Q96BR1 1-496): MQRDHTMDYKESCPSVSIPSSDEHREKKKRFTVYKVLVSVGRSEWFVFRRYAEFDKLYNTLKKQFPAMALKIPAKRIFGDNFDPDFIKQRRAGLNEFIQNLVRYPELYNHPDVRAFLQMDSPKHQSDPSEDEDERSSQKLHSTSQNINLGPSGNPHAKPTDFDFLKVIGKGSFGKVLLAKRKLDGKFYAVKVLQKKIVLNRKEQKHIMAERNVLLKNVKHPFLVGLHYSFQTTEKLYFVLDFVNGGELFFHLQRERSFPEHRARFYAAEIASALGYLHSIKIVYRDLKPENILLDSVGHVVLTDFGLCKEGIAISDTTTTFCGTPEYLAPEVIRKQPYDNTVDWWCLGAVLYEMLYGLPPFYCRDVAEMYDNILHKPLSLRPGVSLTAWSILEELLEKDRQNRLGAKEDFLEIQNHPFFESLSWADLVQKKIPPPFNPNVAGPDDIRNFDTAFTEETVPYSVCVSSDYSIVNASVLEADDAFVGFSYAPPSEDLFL

Experiment [5] addresses FYN (Homo sapiens, UniProt P06241).
In experiment [6] the target is T3, RIPK1 (Homo sapiens, UniProt Q13546).
T3 sequence (Q13546 1-671): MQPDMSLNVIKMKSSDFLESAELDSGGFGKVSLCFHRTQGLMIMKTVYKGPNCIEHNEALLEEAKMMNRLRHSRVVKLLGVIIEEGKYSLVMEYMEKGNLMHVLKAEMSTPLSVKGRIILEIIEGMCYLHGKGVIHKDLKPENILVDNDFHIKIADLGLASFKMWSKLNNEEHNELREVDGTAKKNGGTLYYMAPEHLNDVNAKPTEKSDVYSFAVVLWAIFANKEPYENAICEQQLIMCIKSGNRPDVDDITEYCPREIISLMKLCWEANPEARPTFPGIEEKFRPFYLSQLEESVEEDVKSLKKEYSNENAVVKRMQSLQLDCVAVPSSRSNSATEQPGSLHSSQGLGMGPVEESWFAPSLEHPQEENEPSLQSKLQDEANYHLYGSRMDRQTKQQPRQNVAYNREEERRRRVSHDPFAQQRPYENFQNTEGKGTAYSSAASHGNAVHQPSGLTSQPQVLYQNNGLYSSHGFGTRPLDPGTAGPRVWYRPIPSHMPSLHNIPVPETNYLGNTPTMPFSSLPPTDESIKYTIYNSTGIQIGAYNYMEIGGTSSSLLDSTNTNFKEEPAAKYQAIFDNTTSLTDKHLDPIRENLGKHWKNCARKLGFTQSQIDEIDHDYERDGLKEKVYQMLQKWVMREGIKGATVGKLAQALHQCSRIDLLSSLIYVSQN

Experiment [7] deals with PDGFRA (Homo sapiens, UniProt P16234).
Chain of PDGFRA (P16234 whole entry): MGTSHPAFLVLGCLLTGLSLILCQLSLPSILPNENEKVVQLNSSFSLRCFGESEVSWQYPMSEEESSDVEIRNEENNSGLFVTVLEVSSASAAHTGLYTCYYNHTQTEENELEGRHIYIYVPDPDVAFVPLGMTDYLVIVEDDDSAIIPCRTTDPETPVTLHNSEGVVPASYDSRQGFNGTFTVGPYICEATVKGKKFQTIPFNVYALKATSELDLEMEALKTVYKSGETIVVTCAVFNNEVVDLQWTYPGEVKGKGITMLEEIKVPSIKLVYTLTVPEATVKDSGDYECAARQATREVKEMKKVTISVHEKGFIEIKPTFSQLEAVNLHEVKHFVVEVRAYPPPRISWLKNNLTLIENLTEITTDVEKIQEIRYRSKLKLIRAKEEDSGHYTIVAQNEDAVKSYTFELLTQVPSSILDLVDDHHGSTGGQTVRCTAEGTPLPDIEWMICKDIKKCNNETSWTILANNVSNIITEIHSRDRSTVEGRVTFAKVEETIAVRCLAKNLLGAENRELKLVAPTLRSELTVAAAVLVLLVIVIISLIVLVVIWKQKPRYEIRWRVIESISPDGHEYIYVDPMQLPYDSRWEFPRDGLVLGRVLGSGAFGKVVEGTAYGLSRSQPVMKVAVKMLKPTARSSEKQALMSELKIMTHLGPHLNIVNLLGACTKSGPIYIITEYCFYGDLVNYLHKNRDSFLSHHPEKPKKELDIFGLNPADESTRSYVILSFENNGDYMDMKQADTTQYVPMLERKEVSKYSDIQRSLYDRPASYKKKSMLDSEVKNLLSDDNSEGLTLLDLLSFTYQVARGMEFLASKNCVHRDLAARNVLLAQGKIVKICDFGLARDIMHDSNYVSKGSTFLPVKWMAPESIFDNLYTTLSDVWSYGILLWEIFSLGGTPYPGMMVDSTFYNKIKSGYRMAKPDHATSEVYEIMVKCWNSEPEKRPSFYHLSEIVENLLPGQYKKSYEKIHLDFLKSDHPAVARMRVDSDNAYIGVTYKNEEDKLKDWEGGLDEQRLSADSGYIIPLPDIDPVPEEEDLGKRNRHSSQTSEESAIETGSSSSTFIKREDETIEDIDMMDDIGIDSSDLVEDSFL
[8] abbreviates: read-out: Rucaparib / %Ctrl @ 10000nM, binding competition, % of control.
Where [9] appears, read: read-out: Talazoparib (BMN 673) / %Ctrl @ 10000nM.
Setting [10] is: read-out: Niraparib (MK-4827) / %Ctrl @ 10000nM.
[11] abbreviates: read-out: Olaparib / %Ctrl @ 10000nM.

Molecules are shown by their SMILES. Read-outs that look alike come from different tables or passages of the source.

Chain of FYN (P06241 whole entry): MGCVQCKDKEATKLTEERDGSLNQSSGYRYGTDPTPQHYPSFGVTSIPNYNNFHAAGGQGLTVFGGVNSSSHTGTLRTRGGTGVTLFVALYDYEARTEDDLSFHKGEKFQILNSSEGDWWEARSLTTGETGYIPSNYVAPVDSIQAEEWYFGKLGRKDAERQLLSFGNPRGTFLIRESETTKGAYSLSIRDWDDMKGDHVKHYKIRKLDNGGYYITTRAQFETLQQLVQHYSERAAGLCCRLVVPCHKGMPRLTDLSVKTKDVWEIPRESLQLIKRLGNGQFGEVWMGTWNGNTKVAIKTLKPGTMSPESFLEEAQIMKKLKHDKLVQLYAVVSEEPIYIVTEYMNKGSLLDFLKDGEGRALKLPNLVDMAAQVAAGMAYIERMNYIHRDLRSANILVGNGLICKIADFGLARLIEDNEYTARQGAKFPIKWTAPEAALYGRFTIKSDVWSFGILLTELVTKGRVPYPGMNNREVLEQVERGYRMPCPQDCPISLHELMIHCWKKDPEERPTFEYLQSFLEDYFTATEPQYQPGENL
Chain of VRK2 (Q86Y07 whole entry): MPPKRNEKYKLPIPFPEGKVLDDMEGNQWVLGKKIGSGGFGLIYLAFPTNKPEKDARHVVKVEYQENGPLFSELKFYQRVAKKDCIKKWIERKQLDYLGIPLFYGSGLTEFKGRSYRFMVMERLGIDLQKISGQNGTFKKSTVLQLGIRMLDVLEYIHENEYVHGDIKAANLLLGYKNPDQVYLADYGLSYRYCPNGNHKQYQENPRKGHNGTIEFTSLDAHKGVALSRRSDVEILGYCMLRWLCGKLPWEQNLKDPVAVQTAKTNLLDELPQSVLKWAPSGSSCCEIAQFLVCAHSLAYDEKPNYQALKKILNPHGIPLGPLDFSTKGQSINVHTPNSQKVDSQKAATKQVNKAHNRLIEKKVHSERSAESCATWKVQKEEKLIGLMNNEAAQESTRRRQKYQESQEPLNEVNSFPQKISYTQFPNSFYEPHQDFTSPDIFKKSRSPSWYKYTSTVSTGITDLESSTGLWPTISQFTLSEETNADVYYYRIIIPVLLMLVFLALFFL

Regarding `CNCc1ccc(-c2[nH]c3cc(F)cc4c3c2CCNC4=O)cc1` [Rucaparib], the percent of control binding at 10 µM in experiment [1] (setting [8]) came out at 95%; in experiment [2] (setting [8]), 100%; in experiment [3] (setting [8]), 94%; in experiment [4] (setting [8]), 38%; in experiment [5] (setting [8]) it was 100%; in experiment [6] (setting [8]), 99%. For the same compound, in experiment [7] (setting [8]), the percent of control binding at 10 µM is 53%.

As for `Cn1ncnc1[C@H]1c2n[nH]c(=O)c3cc(F)cc(c23)N[C@@H]1c1ccc(F)cc1` [Talazoparib], the percent of control binding at 10 µM amounted to 100% in experiment [1] (setting [9]); 98% in experiment [2] (setting [9]); 100% in experiment [3] (setting [9]); 100% in experiment [4] (setting [9]); 100% in experiment [5] (setting [9]); 99% in experiment [6] (setting [9]). Further, in experiment [7] (setting [9]), the percent of control binding at 10 µM came to 99%.

Regarding `NC(=O)c1cccc2cn(-c3ccc([C@@H]4CCCNC4)cc3)nc12` [Niraparib], the percent of control binding at 10 µM was 65% in experiment [1] (setting [10]); 82% in experiment [2] (setting [10]); 100% in experiment [3] (setting [10]); 98% in experiment [4] (setting [10]); 88% in experiment [5] (setting [10]); 91% in experiment [6] (setting [10]). In addition, in experiment [7] (setting [10]), the percent of control binding at 10 µM worked out at 69%.

As to `O=C(c1cc(Cc2n[nH]c(=O)c3ccccc23)ccc1F)N1CCN(C(=O)C2CC2)CC1` [Olaparib], the percent of control binding at 10 µM was 99% in experiment [1] (setting [11]); 84% in experiment [2] (setting [11]); 85% in experiment [3] (setting [11]); 79% in experiment [4] (setting [11]); 72% in experiment [5] (setting [11]); 100% in experiment [6] (setting [11]). Besides, the percent of control binding at 10 µM in experiment [7] (setting [11]) was found to be 75%.
